Test results reported in patent US20030206895A1, “Antioxidant composition comprising propionyl L-carnitine and a flavonoid against throm-bosis and atherosclerosis” (priority 1998, published 2003).

Assays:
[1] = test system: platelet aggregation induced by collagen; experiment: Platelet aggregation tests (collagen-induced, Born photometric method); assay type: cell-based, human (healthy volunteers); conditions: 10 minutes' incubation
Experimental: Blood samples taken from healthy volunteers were used for these tests.
The blood samples were treated with sodium citrate and centrifuged for 8 minutes at 100 rpm. The number of platelets was counted and brought to a fixed level of […] by adding platelet poor plasma (PPP) where necessary.
Platelet aggregation was induced using collagen (2.5 μg/ml, 5 μg/ml) as the aggregating agent and determined photometrically according to the method described by Born (Born G. V. R., Nature, 194, 927, 1962).
Platelet aggregation was measured in baseline conditions and after 10 minutes' incubation with quercetin or propionyl L-carnitine or with a combination of quercetin and propionyl L-carnitine in the same amounts.
The propionyl L-carnitine doses were 10 μg and 20 μg/ml, while the quercetin doses were 0.1 μg and 0.25 μg/ml.

[2] = test system: oedema induced in the rat paw by carrageenin; experiment: Anti-inflammatory activity tests: carrageenin-induced oedema of the rat paw; assay type: in vivo; conditions: for anti-oedema / anti-inflammatory effect (in words): rat paw, carrageenin
Experimental: To this end, 0.1 cc of a 1% carrageenin solution (Sigma, St, Louis, USA) were injected in the subplantar zone of the rat paw. The volume of oedema of the paw was measured by means of a mercury plethysmograph at intervals of one hour over the four-hour period following injection of carrageenin. One hour prior to injection, of carrageenin the animals received oral administrations either of propionyl L-carnitine (300 mg/kg and 150 mg/kg), or carnitine mixture (acetyl L-carnitine, propionyl L-carnitine, isovaleryl L-carnitine; 300 mg/kg and 150 mg/kg), or quercetin (100 mg/kg and 50 mg/kg), or various combinations of these compounds.

[3] = test system: hypercholesterolaemic rabbits; experiment: Antiatherosclerotic activity tests: liver total cholesterol and triglycerides; assay type: in vivo, New Zealand rabbits; conditions: thirty days, carnitine(s) 400 mg/kg, quercetin 50 mg/kg
Experimental: The liver was then removed from each animal and used to assay total cholesterol and triglycerides according to the method of Dehoff (Dehoff J. L., Clin. Chem., 24, 433, 1978) and Levy (Levy A., Advances in Automated Analysis, 497-Thurman-Miami, 1972). Arteriosclerotic lesions at the level of the heart and aorta were assessed according to the Klurfield method ([…]. Med., 10, 35, 1979), grading them from I to IV according to the severity of the damage detected.

[4] = test system: mice treated with mitomycin C; experiment: Tests on leukopenia induced by mitomycin C; assay type: in vivo; conditions: for Number of leukocytes after 5 days / Number of leukocytes after 10 days / Number of leukocytes after 12 days / protective effect against leukopenia and toxicity of mitomycin C (in words): mice; for Number of leukocytes after 5 days / Number of leukocytes after 10 days / Number of leukocytes after 12 days / % Mice surviving after 5 days / % Mice surviving after 10 days / % Mice surviving after 12 days: mitomycin C 50 μg/mouse i.p. five days, oral carnitine(s) 300 mg/kg, quercetin 100 mg/kg; for protective effect against leukopenia and toxicity of mitomycin C (in words): oral
Experimental: To evaluate the immunostimulatory effect of the combination of propionyl L-carnitine or carnitine mixture plus quercetin, the effect of these products was evaluated on the toxic and immunosuppressive activity induced by mitomycin C.

[5] = test system: experimental atherosclerosis in rabbits; experiment: Antiatherosclerotic activity tests: biochemical and histological parameters, arteriosclerotic lesions of heart and aorta; assay type: in vivo, New Zealand rabbits; conditions: rabbit, cholesterol-enriched diet, thirty days; carnitine(s) 400 mg/kg, quercetin 50 mg/kg
Experimental: (§1) In these tests, experimental atherosclerosis was induced in rabbits by administering 0.5% of cholesterol by weight together with the standard diet.
The liver was then removed from each animal and used to assay total cholesterol and triglycerides according to the method of Dehoff (Dehoff J. L., Clin. Chem., 24, 433, 1978) and Levy (Levy A., Advances in Automated Analysis, 497—Thurman—Miami, 1972). Arteriosclerotic lesions at the level of the heart and aorta were assessed according to the Klurfield method (Klurfield D. M., J. Med., 10, 35, 1979), grading them from I to IV according to the severity of the damage detected.
The greatest degree of protective activity, however, is that achieved when carnitine and quercetin are administered in combination.

[6] = test system: hypercholesterolaemic rabbits; experiment: Antiatherosclerotic activity tests: plasma lipoprotein concentrations; assay type: in vivo, New Zealand rabbits; conditions: thirty days, carnitine(s) 400 mg/kg, quercetin 50 mg/kg
Excerpt: as §1
After thirty days' treatment, a blood sample was taken from the central artery of the ear in each animal and used to assay the lipoproteins present according to the method described by Hatch (Hatch F. T., Advan. Lipid Res., 6, 1, 1968).

[7] = test system: anaphylactic shock in guinea-pigs; experiment: Anaphylactic shock tests (horse serum sensitisation); assay type: in vivo; conditions: oral; for Surviving/treated animals: carnitine(s) 300 mg/kg, quercetin 50 mg/kg
Experimental: These tests were performed using male albino guinea-pigs with a mean weight of 300 g; the animals received intraperitoneal injections of 1 cc of horse serum diluted 1:10.
After twenty-five days, intravenous injection of 1 cc of horse serum triggered anaphylactic shock with onset of bronchospasm and death of the animals. Five days before the shock-triggering injection, the sensitised animals were treated orally either with propionyl L-carnitine (300 mg/kg), or with carnitine mixture (300 mg/kg), or with quercetin (50 mg/kg), or with various combinations of these compounds.

[8] = Toxicology, single oral administration in the rat; conditions: up to 4 g/kg
[9] = rat, oral, carnitine(s) 300 mg/kg and/or quercetin 100 mg/kg
[10] = rat, oral, carnitine(s) 150 mg/kg and/or quercetin 50 mg/kg

| Structure (SMILES) | anti-oedema / anti-inflammatory effect (in words) [2] | % reduction of carrageenin-induced oedema after 1 h [2, 9] [%] | % reduction of carrageenin-induced oedema after 2 h [2, 9] [%] | % reduction of carrageenin-induced oedema after 3 h [2, 9] [%] | Liver triglycerides [3] [mg/g] | Number of leukocytes after 5 days [4] | Number of leukocytes after 10 days [4] | Number of leukocytes after 12 days [4] | protective effect against leukopenia and toxicity of mitomycin C (in words) [4] | % Mice surviving after 5 days [4] [%] | % Mice surviving after 10 days [4] [%] | % Mice surviving after 12 days [4] [%] | biochemical and histological parameters of experimentally induced atherosclerosis [5] | Plasma HDL [6] [mg/dL] | Plasma LDL [6] [mg/dL] | Plasma VLDL [6] [mg/dL] | protection against death by anaphylactic shock (in words) [7] | Surviving/treated animals [7] | further results |
| --- | --- | --- | --- | --- | --- | --- | --- | --- | --- | --- | --- | --- | --- | --- | --- | --- | --- | --- | --- |
| CCC(=O)O[C@H](CC(=O)[O-])C[N+](C)(C)C [Propionyl L-carnitine, propionyl L-carnitine] | modest anti-oedema effect | 12 ± 0.1 | 10 ± 0.2 | 6 ± 0.5 | 165 ± 14.5 | 6,000 ± 310 | 5,400 ± 280 | 2,100 ± 125 | modest | 60 | 45 | 30 | capable of reducing | 26.4 ± 3.9 | 380 ± 21.5 | 855 ± 32.5 | no protective effect | 2/10 | modification of platelet aggregating action induced by collagen ([1]; propionyl L-carnitine 10 μg and 20 μg/ml): did not prove capable of modifying; signs of toxicity [8]: without any signs of toxicity |
| O=c1c(O)c(-c2ccc(O)c(O)c2)oc2cc(O)cc(O)c12 [Quercetin, quercetin] | modest anti-oedema effect | 18 ± 1.2 | 22 ± 2.5 | 20 ± 19 | 130 ± 14.5 | 5,600 ± 480 | 4,800 ± 410 | 2,800 ± 310 | modest | 70 | 30 | 30 | good inhibitory activity | 28.6 ± 3.8 | 298 ± 30.1 | 816 ± 37.5 | no protective effect | 3/10 | reduction of collagen-induced platelet aggregation ([1]; quercetin 0.25 μg): 50%; % reduction of carrageenin-induced oedema after 1 h [2, 10]: 8 ± 0.6%; % reduction of carrageenin-induced oedema after 2 h [2, 10]: 10 ± 0.2%; % reduction of carrageenin-induced oedema after 4 h [2, 9]: 18 ± 1.5% |
